Like-named read-outs stand apart in the source and are kept apart here.
What was measured:
(H+/K+)-ATPase = biological target: T1, (H+/K+)-ATPase (Canis lupus familiaris, UniProt P50996); experiment: Inhibition of (H+/K+)-ATPase from canine gastric mucosa (inorganic phosphate release); assay type: biochemical
T1 construct: The microsomes retained at the 15%-30% sucrose interface, after centrifugation at 250,000×g for sixty minutes, were used as the source of (H^+/K^+)-ATPase; from tissue; host or cells: gastric glandular mucosa of mongrel dogs (microsomal fraction, lyophilized)
Procedure: Mongrel dogs weighing 15 to 25 kilograms were fasted for twenty-four hours, with water provided ad libitum. The animals were anesthetized with pentobarbital and the stomachs were removed. Subsequent tissue manipulations and subcellular fractionations were performed at 0° C. to 4° C. After the stomachs were cut open and rinsed with tap water, the antral and cardiac regions were removed and the remaining tissue was rinsed three times in saline. The glandular mucosa was removed mechanically, chopped finely in a medium containing 10 mM Tris hydrochloride (pH 7.4) and 250 mM sucrose, and homogenized. The homogenate was centrifuged at 20,000×g for twenty minutes and the pellet discarded. The supernatant was then centrifuged at 150,000×g for ninety minutes and the supernatant discarded. The pellet was resuspended in the Tris-HCl/sucrose medium by homogenization. Part (2 ml) of the resultant microsomal suspension was layered onto a step gradient consisting of 9 ml of 15% sucrose above 12 ml of 30% sucrose, each sucrose solution being buffered with 10 mM Tris hydrochloride (pH 7.4) containing 0.01% sodium azide. The microsomes retained at the 15%-30% sucrose interface, after centrifugation at 250,000×g for sixty minutes, were used as the source of (H^+/K^+)-ATPase. Microsomal preparations were lyophilized, a process that assured potassium ion permiability, and stored at −10° C. until used.
(H^+/K^+)-ATPase activity for each test compound was determined, in duplicate, by measuring the release of inorganic phosphate, which was assayed according to the method of J. ChandraRajan and L. Klein, Anal. Biochem., 72 , 407 (1976). The (H^+/K^+)-ATPase assay medium consisted of 20 mm mes-Tris (pH 6.0), 5 mM magnesium chloride, 25 mM sucrose, and 4 mM Tris-ATP with or without 20 mM potassium chloride in a total volume of 2 ml. Microsomal suspensions (20 to 60 mcl, containing about 25 mcg protein) were added to the assay medium, without Tris-ATP, and then preincubated with a test compound for thirty minutes at 37° C. The assay was initiated by adding Tris-ATP and the mixture was incubated another thirty minutes at 37° C. A 200-mcl aliquot of the assay mixture was then added to 1.4 ml of a solution consisting of 0.1 M sodium acetate (pH 4.0) and 10% sodium dodecylsulfate, followed by the addition of 200 mcl each of 1% ammonium molybdate and 1% ascorbic acid. At least fifteen minutes later, the optical absorbance at 870 nm (which was proportional to inorganic phosphate concentration up to 100 nmoles per tube, as determined by a standard curve) was obtained. Enzyme activity was linear with incubation time.
(H^+/K^+)-ATPase activity is represented by the difference between the measured activities in the presence of potassium-ion (K^+-stimulated) and in the absence of potassium ion (basal).

[1] = biological target: HCMV protease (assemblin) (Human cytomegalovirus, UniProt P16753); experiment: Enzymatic assay for HCMV protease (assemblin) inhibitors, fluorogenic substrate DE2; assay type: biochemical; settings: for inhibition at 100 µM: read-out: Assemblin Inhibition % Inhibition at 100 μm
Procedure: The enzymatic assay for assemblin inhibitors compared the rate of product appearance between a control reaction containing no inhibitor and one that contained a known concentration of a potential inhibitor. There were two phases to the enzyme reaction. The first was a period of incubation of enzyme in the presence of inhibitor, but in the absence of the substrate. This incubation allowed for the inhibitor to bind and potentially block the enzyme from hydrolyzing the substrate. The second phase was started by adding the substrate and measuring the rate of product production.
The construction also encoded six additional histidine residues at the amino terminus of the protease. These additional histidine residues provided an affinity ligand by which it was purified using nickel-nitriloacetic acid-agarose (Qiagen).
The purified protease was stored as a 1-3 mg/ml stock solution in 50 mM sodium phosphate buffer, pH 7.4; 300 mM sodium chloride; 100 mM imidazole; 50% (v/v) glycerol. This stock was diluted with assay buffer to 4.8 μg/ml. A 100 μL aliquot of this solution was used in the enzyme reaction.
A specific substrate was synthesized based on the cleavage specificity of HCMV protease at the “maturation site” of the assembly protein (F. Liu and B. Roizman, J. Viral. 65, 5149 (1991), and A. R. Welch, et al, J. Viral., 65 4091 (1991)). The assembly protein maturation site has the sequence . . . AGVVNA*SCRLATA . . . (SEQ ID NO. 1); the substrate used was dabcycl-Abu-[…]-edans (SEQ ID NO. 2) (DE2). […] However, when the two chromophores are separated because of hydrolysis of the peptide moiety by HCMV protease the edans fluorescence was no longer quenched and an increase in fluorescence was realized. DE2 was stored as a stock solution at 160 μg/ml in dimethyl sulfoxide. This was diluted 10-fold with assay buffer to give a concentration of 16 μg/ml just before use. An aliquot of 50 μL was used in the reaction.
An assay Buffer (10 mM sodium phosphate buffer, pH 7.4; 150 mM sodium acetate; 0.1% CHAPS; and 20% (v/v) glycerol) was used to dilute stock solutions of enzyme and substrate.
Inhibitors were dissolved in dimethyl sulfoxide at 16-times the final assay concentration. A 10 μL aliquot of this inhibitor solution was used in the reaction.
A 100 μL aliquot of enzyme solution (4.8 μg/ml) was mixed with 10 μL of inhibitor solution in a 96-well plate cell and incubated at 22° C. for 30 minutes. Control reactions contained 10 μL of dimethylsulfoxide instead of inhibitor solution. After the preincubation was completed, 50 μL of substrate solution was added and the fluorescence recorded every 5 minutes for a period of 30 minutes. All reactions were run in triplicate with the exception of the uninhibited control reaction which was replicated 6-fold. The change in fluorescence was recorded over time and an average rate for each set of 3 reactions was calculated. Fluorescence assays were subject to spurious various due to factors such as dust in the 96-well plate; such results were omitted from the calculation of relative rates.

gastric acid secretion = experiment: Inhibition of gastric acid secretion in gastric fistula beagle dogs (histamine-stimulated); assay type: in vivo; settings: for inhibition in vivo at 3 mg/kg: Canis lupus familiaris, 4 h, read-out: Gastric-Fistula Beagle % Inhibition (3 mg/kg dose)
Excerpt: Adult female beagle dogs weighing 6 to 11 kilograms obtained from Laboratory Research Enterprises (Kalamazoo, Mich.) or from Hazelton Research Animals (Cumberland, Va.) were surgically implanted with a simple Thomas-type gastric cannula. After recovery from surgery, the dogs were trained to stand quietly, fully conscious, in Pavlov-type dog restraining slings and were acclimated to intravenous infusion of histamine dihydrochloride. During the course of these studies, no dog was used more than once a week. All dogs were deprived of food, but not water, for 18 hours prior to each assay. Each dog was initially infused with 0.15 M sodium chloride solution at a constant rate of […]. The volume of gastric secretions, collected in plastic bottles affixed to the cannula, were measured to the nearest 0.1 ml at 30 minute intervals. One of the following protocols was followed, depending on the route chosen for administration of test compound.
Intravenous dosing: Following a 30-minute basal secretion period, test compounds were administered intravenously (i.v.). At the end of an additional 30 minute period, the saline infusion was replaced with histamine dihydrochloride in saline administered at a rate 15 mcg per kilogram of body weight per hour. Histamine stimulation was maintained for a maximum of four hours during which time gastric secretions were collected every 30 minutes. The pH and titratable acidity were determined for samples from each collection period.
Intragastric dosing: Following a 30-minute basal secretion period, he collection bottles were removed, dosing plugs here inserted, and test compounds were administered intragastrically (i.g.) At the end of a 30-minute drug absorption period, the stomachs were emptied, the collection bottles were reattached, and collections were resumed at 30-minute intervals. Simultaneously, the saline infusion was replaced with a continuous intravenous infusion of histamine dihydrochloride in saline administered for four hours at a rate 15 mcg per kilogram of body weight per hour.
Intraduodenal dosing: Dogs were also equipped with duodenal cannulas for intraduodenal (i.d.) administration of test compounds. Dosing was otherwise performed as described for intragastric dosing.
Data from each protocol were analyzed for three gastric sample variables: volume of gastric juice, acid concentration, and total acid output. Percent inhibition for each four-hour experimental period was determined for each parameter by comparison with 3 to 4 controls in which […]. Estimates of ED50's were determined from dose response curves.

[2] = canine gastric mucosa microsomes, pH 6.0, 30 min preincubation at 37° C., read-out: (H+/K+)-ATPase IC50
[3] = at 100 μm, 30 min preincubation at 22° C.
[4] = intraduodenal, 3 mg/kg i.d., histamine-stimulated, four-hour period
[5] = iv, 3 mg/kg i.v., histamine-stimulated, four-hour period

T1 sequence (P50996 whole entry): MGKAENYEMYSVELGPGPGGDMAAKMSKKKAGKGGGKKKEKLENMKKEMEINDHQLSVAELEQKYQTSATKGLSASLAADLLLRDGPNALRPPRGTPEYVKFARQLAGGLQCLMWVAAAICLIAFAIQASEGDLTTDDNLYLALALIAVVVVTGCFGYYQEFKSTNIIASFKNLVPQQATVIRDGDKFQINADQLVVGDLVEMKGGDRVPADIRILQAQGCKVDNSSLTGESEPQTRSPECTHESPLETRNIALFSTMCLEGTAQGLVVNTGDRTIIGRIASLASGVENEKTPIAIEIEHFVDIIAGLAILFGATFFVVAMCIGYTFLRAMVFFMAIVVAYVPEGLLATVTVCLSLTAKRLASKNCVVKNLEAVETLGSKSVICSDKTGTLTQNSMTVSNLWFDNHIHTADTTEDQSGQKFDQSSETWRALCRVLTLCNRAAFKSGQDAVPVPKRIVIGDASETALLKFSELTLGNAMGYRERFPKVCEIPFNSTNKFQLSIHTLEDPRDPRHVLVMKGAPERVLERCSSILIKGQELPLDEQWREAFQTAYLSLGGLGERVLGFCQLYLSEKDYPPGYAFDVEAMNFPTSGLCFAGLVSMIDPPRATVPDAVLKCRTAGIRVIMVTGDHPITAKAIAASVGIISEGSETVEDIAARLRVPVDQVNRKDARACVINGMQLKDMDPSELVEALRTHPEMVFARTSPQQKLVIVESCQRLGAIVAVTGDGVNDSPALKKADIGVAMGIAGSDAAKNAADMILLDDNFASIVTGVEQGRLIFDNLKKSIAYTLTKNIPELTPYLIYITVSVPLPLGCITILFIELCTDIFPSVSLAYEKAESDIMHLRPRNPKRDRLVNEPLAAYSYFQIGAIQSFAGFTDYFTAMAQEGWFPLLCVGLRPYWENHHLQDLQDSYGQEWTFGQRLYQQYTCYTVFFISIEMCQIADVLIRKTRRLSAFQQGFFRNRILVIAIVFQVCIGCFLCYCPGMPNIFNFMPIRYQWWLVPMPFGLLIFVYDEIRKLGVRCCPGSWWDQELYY
T1 sequence (P33704 whole entry partner): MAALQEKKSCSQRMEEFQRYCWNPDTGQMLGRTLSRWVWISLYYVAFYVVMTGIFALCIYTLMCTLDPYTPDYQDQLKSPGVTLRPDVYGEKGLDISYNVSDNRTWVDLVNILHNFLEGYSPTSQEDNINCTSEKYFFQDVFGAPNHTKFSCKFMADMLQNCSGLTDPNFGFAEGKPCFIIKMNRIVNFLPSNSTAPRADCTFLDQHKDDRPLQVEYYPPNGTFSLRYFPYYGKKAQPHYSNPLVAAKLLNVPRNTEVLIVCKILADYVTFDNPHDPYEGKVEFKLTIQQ
Sequence of HCMV protease (assemblin) (P16753 1-256): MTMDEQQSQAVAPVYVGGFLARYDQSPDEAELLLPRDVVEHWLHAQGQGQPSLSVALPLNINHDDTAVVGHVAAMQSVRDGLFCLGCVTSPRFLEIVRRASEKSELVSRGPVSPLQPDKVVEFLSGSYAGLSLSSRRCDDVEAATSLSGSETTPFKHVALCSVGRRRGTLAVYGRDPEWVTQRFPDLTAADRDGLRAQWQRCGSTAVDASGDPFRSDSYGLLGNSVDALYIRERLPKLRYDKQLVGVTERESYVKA

CCOC(=O)c1ccc(N)c(C[S+]([O-])c2nc3ccccc3[nH]2)c1.CCOC(=O)c1ccc(N)c(C[S+]([O-])c2nc3ccccc3[nH]2)c1.O (stereo not shown) [Example 71, Ethyl 4-amino-3-[(1H-benzimidazol-2-ylsulfinyl)methyl]benzoate hemihydrate]
IC50 ((H+/K+)-ATPase; [2]): > 100 µM | Assemblin Inhibition % Inhibition at 100 μm [1, 3]: 44% | Gastric-Fistula Beagle % Inhibition (3 mg/kg dose) (gastric acid secretion; 3 mg/kg i.d., histamine-stimulated, four-hour period): 7 i.d. %

CCOC(=O)c1ccc(N)c(C[S+]([O-])c2nc3ccc(OC)cc3[nH]2)c1 (stereo not shown) [Example 73, Ethyl 4-amino-3-[[(S-methoxy-1H-benzimidazol-2-yl)sulfinyl]methyl]benzoate]
IC50 ((H+/K+)-ATPase; [2]): > 100 µM | inhibition at 100 µM [1, 3]: 50%

COc1ccc2[nH]c([S+]([O-])Cc3ccccc3N)nc2c1 (stereo not shown) [Example 12, 2-[[(5-Methoxy-1H-benzimidazol-2-yl)sulfinyl]methyl]benzenamine]
IC50 ((H+/K+)-ATPase; [2]): 11 µM | melting point: 147 to 148 °C | inhibition at 100 µM [1, 3]: 26% | inhibition in vivo at 3 mg/kg (gastric acid secretion; [4]): 90%

CN(C)c1ncccc1C[S+]([O-])c1nc2ccccc2[nH]1 (stereo not shown) [Example 83, 3-[(1H-Benzimidazol-2-ylsulfinyl)methyl]-N,N-dimethyl-2-pyridinamine ⅓ hydrate]
IC50 ((H+/K+)-ATPase): 8.6 µM | inhibition at 100 µM [1, 3]: 83% | inhibition in vivo at 3 mg/kg (gastric acid secretion; [5]): 15%

COc1cc(Cl)c(C)c(C[S+]([O-])c2nc3ccccc3[nH]2)c1N (stereo not shown) [Example 59, 2-[(1H-Benzimidazol-2-ylsulfinyl)methyl]-4-chloro-6-methoxy-3-methylbenzenamine]
IC50 ((H+/K+)-ATPase; [2]): 2.7 µM | melting point: 163 to 164 °C | inhibition at 100 µM [1, 3]: 71%

COc1cccc(C[S+]([O-])c2nc3ccccc3[nH]2)c1N.COc1cccc(C[S+]([O-])c2nc3ccccc3[nH]2)c1N.O (stereo not shown) [Example 22, 2-((1H-Benzimidazol-2-ylsulfinyl)methyl]-6-methoxybenzenamine hemihydrate]
IC50 ((H+/K+)-ATPase; [2]): 9.3 µM | Assemblin Inhibition % Inhibition at 100 μm [1, 3]: 35% | Gastric-Fistula Beagle % Inhibition (3 mg/kg dose) (gastric acid secretion; 3 mg/kg i.v., histamine-stimulated, four-hour period): 70 i.v. %

Nc1ccccc1C[S+]([O-])c1nc2cc(C(F)(F)F)ccc2[nH]1 (stereo not shown) [Example 47]
IC50 ((H+/K+)-ATPase; [2]): 4.4 µM | melting point: 152 to 152.5 °C | inhibition at 100 µM [1, 3]: 40% | inhibition in vivo at 3 mg/kg (gastric acid secretion; [4]): 37%

CCOc1ccc2[nH]c([S+]([O-])Cc3ccccc3N)nc2c1 (stereo not shown) [Example 45, 2-[[(5-Ethoxy-1H-benzimidazol-2-yl)sulfinyl]-methyl]benzenamine]
IC50 ((H+/K+)-ATPase; [2]): 24 µM | melting point: 154 to 155 °C | inhibition at 100 µM [1, 3]: 51%

Cc1cc(Cl)cc(C[S+]([O-])c2nc3ccccc3[nH]2)c1N.Cc1cc(Cl)cc(C[S+]([O-])c2nc3ccccc3[nH]2)c1N.O (stereo not shown) [Example 57, 2-[(1H-Benzimidazol-2-ylsulfinyl)methyl]-4-chloro-6-methylbenzenamine hemihydrate]
IC50 ((H+/K+)-ATPase; [2]): 60 µM | Assemblin Inhibition % Inhibition at 100 μm [1, 3]: 66%

CNc1ccccc1C[S+]([O-])c1nc2ccccc2[nH]1 (stereo not shown) [Example 32, 2-[(1H-Benzimidazol-2-ylsulfinyl)methyl]-N-methylbenzenamine monohydrate]
IC50 ((H+/K+)-ATPase; [2]): 0.64 µM | inhibition at 100 µM [1]: 52% | inhibition in vivo at 3 mg/kg (gastric acid secretion; intraduodenal): 21%

Cc1cc2nc([S+]([O-])Cc3ccccc3N)[nH]c2cc1C (stereo not shown) [Example 10, 2-[[(5,6-Dimethyl-1H-benzimidazol-2-yl)sulfinyl]methyl]benzenamine ¼ hydrate]
IC50 ((H+/K+)-ATPase; [2]): 13.5 µM | inhibition at 100 µM [1, 3]: 43% | inhibition in vivo at 3 mg/kg (gastric acid secretion; [5]): 44%

COc1c(C)cc(N)c(C[S+]([O-])c2nc3ccccc3[nH]2)c1C (stereo not shown) [Example 39, 2-[(1H-Benzimidazol-2-ylsulfinyl)methyl]-4-methoxy-3,5-dimethylbenzenamine]
IC50 ((H+/K+)-ATPase; [2]): 0.2 µM | melting point: 150 to 155 °C | inhibition at 100 µM [1, 3]: 46% | inhibition in vivo at 3 mg/kg (gastric acid secretion; [4]): 53%

Reference: patent publication US6906078B2, “Method of using (H+/K+) ATPase inhibitors as antiviral agents” (Pharmacia Corporation, priority 1994, dated 2005)
